Test [1] concerns the target T1, cynomolgus monkey prostatic 5α-reductase (Macaca fascicularis, UniProt Q28892).
T1 construct: microsomal preparations of the 5α-reductase enzyme from laboratory animal prostate tissue; from tissue; host or cells: cynomolgus monkey prostate, microsomes
T1 sequence (Q28892 1-254): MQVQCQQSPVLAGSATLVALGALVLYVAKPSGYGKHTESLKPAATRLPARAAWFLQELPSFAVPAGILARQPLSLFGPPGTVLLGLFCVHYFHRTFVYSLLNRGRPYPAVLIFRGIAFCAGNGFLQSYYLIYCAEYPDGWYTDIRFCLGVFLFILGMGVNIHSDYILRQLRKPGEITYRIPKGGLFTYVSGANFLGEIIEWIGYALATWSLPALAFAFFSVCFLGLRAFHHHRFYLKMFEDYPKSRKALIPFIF
Nature of the test: In vitro 5α-reductase assay, prostate microsomes. The format is biochemical. The settings on record: mean of duplicates. The procedure: In vitro 5α-reductase assays: The activity of the present compounds as inhibitors of steroid 5α-reductase was determined using microsomal preparations of the 5α-reductase enzyme from laboratory animal prostate tissue. Specifically, microsomes were isolated from cynomolgus monkey prostate tissue. Protein concentration of the microsomal preparations was determined prior to use of the samples. Individual assays of cynomolgus monkey prostatic 5α-reductase activity contained 0.1 M potassium phosphate-sodium citrate buffer, pH 5.6 1.0% (w/v) bovine serum albumin, […] sodium EDTA, 4 µg of microsomal protein, 1.0 mM NADPH, 5.0 mM glucose-6-phosphate, 1 IU/mL glucose-6-phosphate dehydrogenase, [1,2-^3H]-testosterone (0.15 µCi) plus unlabeled testosterone to yield 0.015 µM (Km = 0.015 µM to 0.091 µM in multiple determinations), and test compound which was dissolved in DMSO then diluted in 0.1 M potassium phosphate-sodium citrate buffer, pH 5.6, to yield a final assay concentration of 0.1% (v/v) DMSO. The same buffer and DMSO without test compound were used in control assays. Background radioactivity was determined from assays containing all components except enzyme. Assays were performed in duplicate. Microsomes, 0.1 M potassium phosphate-sodium citrate buffer, pH 5.6, and test compound were preincubated at 37°C. Aliquots of 180 µL were removed after 0 or 40 minutes of preincubation and added to […] of testosterone substrate suspended in 0.1 M potassium phosphate-sodium citrate buffer, pH 5.6, containing 10% (v/v) DMSO. Remaining enzyme activity was assayed for 10 minutes at 37°C in a Dubnoff shaker incubator.
The reactions were terminated by the addition of 5 mL CHCl3:methanol (2:1) and 0.9 mL water. Carrier steroids were added in the form of 2.5 µg each of testosterone, dihydrotestosterone, and 3,17-androstanediol. Steroid metabolites were then extracted according to the procedure of Moore and Wilson (Methods in Enzymol., O'Malley, B.W. and Hardman, J.G. eds., 36, 1975, pp. 466-474), the organic phase containing the steroids was evaporated using nitrogen gas, the residues were dissolved in 3% (v/v) isopropanol in hexane. The steroids were then separated by normal phase HPLC on a LiCrosorb® DIOL derivatized silica gel column (10 µm; 4 x 250 mm) with a 3% to 7.5% isopropanol in hexane gradient, followed by isocratic conditions of […] isopropanol in hexane. Radioactivity in the steroid peaks was measured using a Packard Radiomatic model HS Flo-One detector. When the compound were tested using the above procedures with cynomolgus monkey 5α-reductase, the following results were obtained: Table 2: […]

In test [2] the test system is Dunning H Tumor. The test can be described thus: Dunning H tumor growth in rats. It is filed as in vivo, male Copenhagen rats. The following applies: MDL 105831 15 mg/kg/day PO, MDL 15910 50 mg/kg/day PO. An excerpt: As described in J.T. Isaacs & D.S. Coffey, Cancer Res. 41:5070-5075 (1981); W.J. Ellis & J.T. Issacs, Cancer Res. 45:6041-6050 (1985); T.W. Bedding & A.V. Schally, The Prostate 6:219-232 (1985) and P.E. Juniewicz et al. The Prostate 18:105-115 (1991), male Copenhagen rats were obtained from HARLAN-SPRAGUE-DAWLEY Inc. (Indianapolis, IN), and were individually housed in suspended wire cages and provided laboratory rodent chow (Purina 5001 pellets, Purina Mills, St. Louis, MO) and deionized water ad libum. The rats were anesthetized using sodium pentobarbital and the hair was clipped from the back dorsal area. Tumors from donor Copenhagen rats were cut into fragments of 10 mm^3 and implanted subcutaneously (one site per rat) into the prepared dorsal area.
Animals were selected (105 days post implantation) for the treatment phase based on tumor size. Ten animals were anesthetized with sodium pentobarbital and bilaterally castrated. The remaining animals were assigned to treatment groups (ten per group) based on mean group tumor size. Animals were kept separate throughout the study. The tested compounds were prepared in solution or suspension in a lecithin vehicle (L-α-phosphatidylcholine type XV-E) containing methylparaben and propylparaben. All treatments were performed by oral gavage (per os) at 2 cc/kg each day of study. Tumor size and rat body weights were recorded every seven days over a period of 35 days. Twenty-four hours after the last treatment animals were euthenized by CO2 and the tumors, prostate, seminal vesicles and testes were removed and weighed. In Table 4, average tumor growth is determined from the corrected group means over a 35 day period after treatment was started. […] The animals eliminated from the calculation of the corrected means were in Figure 6, animals 8, 9, 10; in Figure 7, animals 18, 19 and 20; in Figure 8, animals 27, 28, 29 and 30; and in Figure 9, animals 37, 39 and 40. The castrated controls in Figure 10 present a different problem. Here it is believed that the different tumor volumes observed throughout the group is attributable to the different sizes at the beginning of the study. Since the mean variance here is clearly attributable to factors other than the effect of the castration itself, animals 47, 48, 49 and 50 were deleted from the corrected mean. Of these, animal 47 died during the treatment period.
Table 4 indicates the average daily growth rate, measured from the corrected mean tumor size on day 35 and day 0, comparing MDL 105831 and flutamide (MDL 15910), a known androgen receptor antagonist. […]

SMILES strings stand for the structures.

In test [1] (preincubation 0 min), `CC12CCC3C(CC[C@H]4NC(=O)CCC34C)C1CC[C@@H]2OC1CC1` (stereo partly drawn) [MDL 103,432, 17β-Cyclopropyloxy-4-aza-5α-androstan-3-one] yielded an inhibition at 0.1 µM of 78.7%, an inhibition at 1 µM of 98.7% and an inhibition at 10 µM of 99.4%. Further, in test [1] (preincubation 40 min), the inhibition at 0.1 µM amounted to 80%, the inhibition at 1 µM is 99.3% and the inhibition at 10 µM was 99.4%.
Consider `C[C@]12CC[C@H]3[C@@H](CC=C4NC(=O)CC[C@@]43C)[C@@H]1CC[C@@H]2NC1CC1` [MDL 105,831, 17β-Cyclopropylamino-4-aza-androst-5-en-3-one], for which, in test [2] (Day 0 (baseline), corrected group mean), the “Tumor Growth in Dunning H Rat, Day 0” value came to 328.40 mm^3. In addition, the “Tumor Growth in Dunning H Rat, Day 7” value in test [2] (Day 7, corrected group mean) amounted to 389.90 mm^3. Moreover, the “Tumor Growth in Dunning H Rat, Day 16” value in test [2] (Day 16, corrected group mean) is listed as 497.20 mm^3. The “Tumor Growth in Dunning H Rat, Day 21” value in test [2] (Day 21, corrected group mean) amounted to 759.40 mm^3. For the same compound, the “Tumor Growth in Dunning H Rat, Day 29” value in test [2] (Day 29, corrected group mean) is 1135.80 mm^3. The “Tumor Growth in Dunning H Rat, Day 35” value in test [2] (Day 35, corrected group mean) amounted to 1041.60 mm^3. Further, the “Δv/Δt (day 35-day 0)” value in test [2] (average daily growth rate from corrected mean tumor size) was found to be 20.38 mm^3/day.

Source of the values: patent EP0880540B1, “17-BETA-CYCLOPROPYL(AMINO/OXY) 4-AZA STEROIDS AS ACTIVE INHIBITORS OF TESTOSTERONE 5-ALPHA-REDUCTASE AND C17-20-LYASE” (Aventis Pharmaceuticals Inc., priority 1996, dated 1997).
